Laboratory results published in publication PMC4893628, “Chalcone-based Selective Inhibitors of a C4 Plant Key Enzyme as Novel Potential Herbicides” (Scientific Reports, 2016).
Where two headings read alike, the source gives them in different places.

Key:
F. trinervia PEPC = target: T1, F. trinervia PEPC (Flaveria trinervia, UniProt P30694); assay: biochemical; assay type: biochemical; conditions: for Selectivity C4/C3: C4 PEPC over C3 isoform
T1 construct: the full-length ppcA gene of PEPC from F. trinervia (EMBL-Bank X61304); made in house; host or cells: Escherichia coli BL21(DE3)
T1 sequence (P30694 1-966): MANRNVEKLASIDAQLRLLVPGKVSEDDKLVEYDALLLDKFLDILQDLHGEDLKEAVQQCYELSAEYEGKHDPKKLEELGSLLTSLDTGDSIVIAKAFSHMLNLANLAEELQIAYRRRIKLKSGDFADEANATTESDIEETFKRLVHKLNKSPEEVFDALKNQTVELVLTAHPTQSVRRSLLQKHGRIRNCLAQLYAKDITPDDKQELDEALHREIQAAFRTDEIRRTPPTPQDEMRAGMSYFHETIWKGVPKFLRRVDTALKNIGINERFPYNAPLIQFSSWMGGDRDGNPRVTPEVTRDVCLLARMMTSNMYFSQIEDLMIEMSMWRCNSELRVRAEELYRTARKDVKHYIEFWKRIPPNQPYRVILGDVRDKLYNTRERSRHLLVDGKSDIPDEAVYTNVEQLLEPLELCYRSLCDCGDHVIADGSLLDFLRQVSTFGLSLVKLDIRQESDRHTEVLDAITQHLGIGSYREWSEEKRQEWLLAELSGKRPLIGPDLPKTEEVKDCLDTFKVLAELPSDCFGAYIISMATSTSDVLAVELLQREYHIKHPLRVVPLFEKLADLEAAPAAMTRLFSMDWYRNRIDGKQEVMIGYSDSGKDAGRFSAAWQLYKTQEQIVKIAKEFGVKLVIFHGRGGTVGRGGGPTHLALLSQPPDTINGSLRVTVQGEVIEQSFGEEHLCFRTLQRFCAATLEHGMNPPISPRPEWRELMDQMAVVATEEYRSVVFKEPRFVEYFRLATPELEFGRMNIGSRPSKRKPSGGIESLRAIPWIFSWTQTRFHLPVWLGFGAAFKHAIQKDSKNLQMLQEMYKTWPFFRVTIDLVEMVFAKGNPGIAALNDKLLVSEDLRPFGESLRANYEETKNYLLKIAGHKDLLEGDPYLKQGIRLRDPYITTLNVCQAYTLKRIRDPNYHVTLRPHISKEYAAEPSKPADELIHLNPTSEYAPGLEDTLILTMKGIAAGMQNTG
Procedure: The IC50 values of small molecule compounds on F. pringlei and F. trinervia PEPCs were determined using PEPC coupled spectrophotometric assay. The amount of NADH oxidized by NADH-malate dehydrogenase was measured by the decrease in absorbance at 340 nm in a Beckman DU-800 spectrophotometer, thus the value is in proportion to the corresponding substrate conversion of the enzyme. […] The reactions were started by adding two folds of the Km value of PEP for each enzyme. The data were analyzed using GraFit (Erithacus Software, UK).

[1] = system: Escherichia coli K-12 MG1655; assay: Bacterial growth in microscale cultivation, E. coli; assay type: cell-based; conditions: for activity at 0.3 µM / activity at 3 µM / activity at 30 µM: Escherichia coli; for Lag Phase: relative to control
Procedure: (§1) The following bacteria were cultivated in the presence of trans-chalcone derived inhibitors: Corynebacterium glutamicum ATCC13032[43], Escherichia coli K-12 MG1655[44], Pseudomonas putida KT2440[45], and Bacillus subtilis 168[46]. The growth of these bacteria was monitored in flower-well plates shaken at 1200 rpm as backscatter at 620 nm (gain 20) using a BioLector® microscale cultivation system (m2p labs, Baesweiler, Germany). For further experimental details please refer to the Supplementary Information.
(§2) medium or the appropriate minimal medium and shaken at 140 rpm overnight. For inoculation of
(§3) the main culture, cells equivalent to an optical density at 600 nm of 0.5 (C. glutamicum, E. coli,
(§4) and P. putida) or 0.25 (B. subtilis) in 800 µL medium were washed and resuspended in fresh
(§5) media. Inhibitor substances were dissolved in DMSO and added to the media to a final
(§6) Since the least polar trans-chalcone and 2’-hydroxychalcone precipitated in the growth media at
(§7) the highest concentrations, the maximal concentration of these compounds was reduced to 400
(§8) µM and 100 µM, respectively. The final backscatter at 620 nm, the growth rate (h-1), and the
(§9) duration of the lag phase of all cultures were determined in a BioLector microscale cultivation
(§10) system in comparison to negative controls supplemented with the solvent DMSO. A longer lag

[2] = system: Pseudomonas putida KT2440; assay: Bacterial growth in microscale cultivation, P. putida; assay type: cell-based; conditions: for activity at 0.3 µM / activity at 3 µM / activity at 30 µM: Pseudomonas putida; for Lag Phase: relative to control
Procedure: as §1, §2, §3, §4, §5, §6, §7, §8, §9, §10

Bacillus subtilis 168 = assay: Bacterial growth in microscale cultivation, B. subtilis; assay type: cell-based; conditions: for Lag Phase: relative to control
Procedure: as §1, §2, §3, §4, §5, §6, §7, §8, §9, §10

O=C(/C=C/c1ccccc1)c1ccc(O)c(O)c1O [Compound 10, 2′,3′,4′-Trihydroxychalcone]
Selectivity C4/C3 (F. trinervia PEPC): 15 fold
Selectivity C4/C3 (F. trinervia PEPC; listed as 2′,3′,4′-Trihydroxychalcone): 15–45 fold
IC50 (F. trinervia PEPC; IC50 F. trinervia PEPC, C4 PEPC): 4.2 ± 1.5 µM
activity at 0.3 µM ([1]; MG1655, read-out: Final Backscatter, complex medium, 0.3 µM, relative to control): 106%
activity at 3 µM ([1]; MG1655, read-out: Final Backscatter, complex medium, 3 µM, relative to control): 106%
activity at 30 µM ([1]; MG1655, read-out: Final Backscatter, complex medium, 30 µM, relative to control): 98.9%
activity at 0.3 µM ([1]; MG1655, read-out: Final Backscatter, minimal medium, 0.3 µM, relative to control): 105%
activity at 3 µM ([1]; MG1655, read-out: Final Backscatter, minimal medium, 3 µM, relative to control): 105%
activity at 30 µM ([1]; MG1655, read-out: Final Backscatter, minimal medium, 30 µM, relative to control): 109%
activity at 0.3 µM ([1]; MG1655, read-out: Growth rate, complex medium, 0.3 µM, relative to control): 109%
activity at 3 µM ([1]; MG1655, read-out: Growth rate, complex medium, 3 µM, relative to control): 99.8%
activity at 30 µM ([1]; MG1655, read-out: Growth rate, complex medium, 30 µM, relative to control): 104%
activity at 0.3 µM ([1]; MG1655, read-out: Growth rate, minimal medium, 0.3 µM, relative to control): 96.3%
activity at 3 µM ([1]; MG1655, read-out: Growth rate, minimal medium, 3 µM, relative to control): 92%
activity at 30 µM ([1]; MG1655, read-out: Growth rate, minimal medium, 30 µM, relative to control): 99.2%
Lag Phase ([1]; complex medium, 0.3 µM): 92,1%
Lag Phase ([1]; complex medium, 3 µM): 94,8%
Lag Phase ([1]; complex medium, 30 µM): 118,4%
Lag Phase ([1]; minimal medium, 0.3 µM): 92,1%
Lag Phase ([1]; minimal medium, 3 µM): 90,6%
Lag Phase ([1]; minimal medium, 30 µM): 92,1%
activity at 0.3 µM ([2]; KT2440, read-out: Final Backscatter, complex medium, 0.3 µM, relative to control): 103%
activity at 3 µM ([2]; KT2440, read-out: Final Backscatter, complex medium, 3 µM, relative to control): 102%
activity at 30 µM ([2]; KT2440, read-out: Final Backscatter, complex medium, 30 µM, relative to control): 105%
activity at 0.3 µM ([2]; KT2440, read-out: Final Backscatter, minimal medium, 0.3 µM, relative to control): 101%
activity at 3 µM ([2]; KT2440, read-out: Final Backscatter, minimal medium, 3 µM, relative to control): 101%
activity at 30 µM ([2]; KT2440, read-out: Final Backscatter, minimal medium, 30 µM, relative to control): 103%
activity at 0.3 µM ([2]; KT2440, read-out: Growth rate, complex medium, 0.3 µM, relative to control): 114%
activity at 3 µM ([2]; KT2440, read-out: Growth rate, complex medium, 3 µM, relative to control): 103%
activity at 30 µM ([2]; KT2440, read-out: Growth rate, complex medium, 30 µM, relative to control): 105%
activity at 0.3 µM ([2]; KT2440, read-out: Growth rate, minimal medium, 0.3 µM, relative to control): 94.8%
activity at 3 µM ([2]; KT2440, read-out: Growth rate, minimal medium, 3 µM, relative to control): 96%
activity at 30 µM ([2]; KT2440, read-out: Growth rate, minimal medium, 30 µM, relative to control): 91.3%
Lag Phase ([2]; complex medium, 0.3 µM): 103,9%
Lag Phase ([2]; complex medium, 3 µM): 100,9%
Lag Phase ([2]; complex medium, 30 µM): 107,3%
Lag Phase ([2]; minimal medium, 0.3 µM): 100,0%
Lag Phase ([2]; minimal medium, 3 µM): 101,5%
Lag Phase ([2]; minimal medium, 30 µM): 99,2%
activity at 0.3 µM (Bacillus subtilis 168; Bacillus subtilis, 168, read-out: Final Backscatter, complex medium, 0.3 µM, relative to control): 102%
activity at 3 µM (Bacillus subtilis 168; Bacillus subtilis, 168, read-out: Final Backscatter, complex medium, 3 µM, relative to control): 101%
activity at 30 µM (Bacillus subtilis 168; Bacillus subtilis, 168, read-out: Final Backscatter, complex medium, 30 µM, relative to control): 103%
activity at 0.3 µM (Bacillus subtilis 168; Bacillus subtilis, 168, read-out: Final Backscatter, minimal medium, 0.3 µM, relative to control): 108%
activity at 3 µM (Bacillus subtilis 168; Bacillus subtilis, 168, read-out: Final Backscatter, minimal medium, 3 µM, relative to control): 110%
activity at 30 µM (Bacillus subtilis 168; Bacillus subtilis, 168, read-out: Final Backscatter, minimal medium, 30 µM, relative to control): 106%
activity at 0.3 µM (Bacillus subtilis 168; Bacillus subtilis, 168, read-out: Growth rate, complex medium, 0.3 µM, relative to control): 106%
activity at 3 µM (Bacillus subtilis 168; Bacillus subtilis, 168, read-out: Growth rate, complex medium, 3 µM, relative to control): 109%
activity at 30 µM (Bacillus subtilis 168; Bacillus subtilis, 168, read-out: Growth rate, complex medium, 30 µM, relative to control): 112%
activity at 0.3 µM (Bacillus subtilis 168; Bacillus subtilis, 168, read-out: Growth rate, minimal medium, 0.3 µM, relative to control): 88.5%
activity at 3 µM (Bacillus subtilis 168; Bacillus subtilis, 168, read-out: Growth rate, minimal medium, 3 µM, relative to control): 94.4%
activity at 30 µM (Bacillus subtilis 168; Bacillus subtilis, 168, read-out: Growth rate, minimal medium, 30 µM, relative to control): 90.6%
Lag Phase (Bacillus subtilis 168; complex medium, 0.3 µM): 100,0%
Lag Phase (Bacillus subtilis 168; complex medium, 3 µM): 104,2%
Lag Phase (Bacillus subtilis 168; complex medium, 30 µM): 97,9%
Lag Phase (Bacillus subtilis 168; minimal medium, 0.3 µM): 98,3%
Lag Phase (Bacillus subtilis 168; minimal medium, 3 µM): 96,6%
Lag Phase (Bacillus subtilis 168; minimal medium, 30 µM): 99,3%
